Assay results from ChEMBL document CHEMBL1152256, “Synthesis of Arabino glycosyl triazoles as potential inhibitors of mycobacterial cell wall biosynthesis” (2008).
Activity calls are given as the source filed them. No cut-off for these calls is given here.

Test system: Escherichia coli
Test: Antibacterial activity against Escherichia coli JM109 at 1 mg/mL
Format: functional, organism-based

CCCCCCc1cn([C@@H]2O[C@H](CO)[C@@H](O)[C@@H]2O)nn1
Activity: inactive

CCCCCCCCCCCCCCOCc1cn([C@@H]2O[C@H](CO)[C@@H](O)[C@@H]2O)nn1
Activity: inactive

CCCCCCCCCCc1cn([C@@H]2O[C@H](CO)[C@@H](O)[C@@H]2O)nn1
Activity: inactive

CC(C)=CCC/C(C)=C/CC/C(C)=C/COCc1cn([C@@H]2O[C@H](CO)[C@@H](O)[C@@H]2O)nn1
Activity: inactive

OC[C@H]1O[C@@H](n2cc(-c3ccccc3)nn2)[C@@H](O)[C@@H]1O
Activity: inactive

CCCCCCCCc1cn([C@@H]2O[C@H](CO)[C@@H](O)[C@@H]2O)nn1
Activity: inactive
